The values below come from article PMC6658616, “Novel Peptide Conjugates of Modified Oligonucleotides for Inhibition of Bacterial RNase P” (Frontiers in Pharmacology, 2019).

The subject of the data set is E. coli RNase P (M1 RNA + C5 protein). Description: Inhibition of RNase P hydrolysis of fluorescent RNA target by inhibiting oligonucleotides. The note with it: 5 nM M1 RNA, 50 nM C5 protein, 100 nM fluorescent RNA target, 0-125 nM inhibiting oligonucleotide, 10 mM Tris-HCl pH 7.5, 10 mM MgCl2, 100 mM NH4Cl, 37°C; fluorescence read-out; mean ± SD from two independent experiments. Format: biochemical, Escherichia coli.

As for “d-inh: oligodeoxyribonucleotide 5’-d(CAAGCAGCCTACCC) (DNA, backbone not given here)”, the IC50 (as a rule, the point on the concentration scale where inhibition reaches its midpoint) came to 270 ± 90 nM.

Turning to “r-inh: native oligoribonucleotide 5’-r(CAAGCAGCCUACCC), complementary to nucleotides 291–304 in the P15-loop of E. coli M1 RNA (RNA, backbone not given here)”, the IC50 turned out to be 12 ± 4 nM.
